From patent publication US20260022142A1, “MACROCYCLIC IMMUNOMODULATORS” (Bristol-Myers Squibb Company, priority 2022, published 2026)
pIC50: −log10 of the molar value. Bridge positions count the residues as written; N and C are the ends. Square brackets hold non-standard residues; d marks the D form. Peptide text beside a SMILES is read from it. * marks the point of attachment. ξ: configuration not given here. Phe(4-COOH) = N[C@@H](Cc1ccc(C(=O)O)cc1)C(=O)O; Bip = N[C@@H](Cc1ccc(-c2ccccc2)cc1)C(=O)O; hArg = N=C(N)NCCCC[C@H](N)C(=O)O; 4Pal = N[C@@H](Cc1ccncc1)C(=O)O; Cha = N[C@@H](CC1CCCCC1)C(=O)O; Thr(3ξ) = CC(O)[C@H](N)C(=O)O; 12Ado = NCCCCCCCCCCCC(=O)O; Carboxymethyl = O=C(O)C*; Orn = NCCC[C@H](N)C(=O)O; Aun = NCCCCCCCCCCC(=O)O; Dab = NCC[C@H](N)C(=O)O; Dap = NC[C@H](N)C(=O)O; AEEA = NCCOCCOCC(=O)O

Molecular target: T1, PD-1/PD-L1 interaction (PE-labeled human PD-L1-Ig binding to Jurkat cell line over-expressing human PD-1) (Homo sapiens, UniProt Q15116)
T1 construct: expressed in transfected cells; host or cells: Jurkat
T1 sequence (Q15116 25-288): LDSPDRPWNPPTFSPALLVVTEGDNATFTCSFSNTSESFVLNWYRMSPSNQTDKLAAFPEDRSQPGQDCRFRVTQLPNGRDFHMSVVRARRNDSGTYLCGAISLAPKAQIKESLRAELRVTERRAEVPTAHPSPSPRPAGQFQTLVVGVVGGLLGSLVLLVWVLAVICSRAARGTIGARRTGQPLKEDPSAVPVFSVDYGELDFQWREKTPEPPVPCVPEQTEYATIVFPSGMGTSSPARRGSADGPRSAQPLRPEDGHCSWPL
Assay: Jurkat-PD-1 Cell Binding High-Content Screening Assay (CBA)
Type: cell-based
Conditions: Jurkat cell line over-expressing human PD-1; PE-labeled PD-L1-Ig 20 nM final; read-out: Jurkat hPD1-PDL1 IC50
In short: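 Binding of fluorescent PD-L1-Ig (phycoerythrin on Ig tag, 20 nM final, 1 h) measured by high-content imaging of fixed, Hoechst-counterstained Jurkat-hPD-1 cells. Compound added 2 h at 37° C beforehand, in DMEM with 10% fetal calf serum.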

Compound	pIC50
CC(C)C[C@H]1NC(=O)[C@H](CCCN)NC(=O)[C@H](C(C)C)NC(=O)[C@H](Cc2ccc(-c3ccccc3)cc2)NC(=O)[C@H](C(C)C)NC(=O)[C@H](Cc2c[nH]c3ccccc23)NC(=O)[C@H](CC(=O)O)NC(=O)[C@H](Cc2ccc(OCC(=O)O)cc2)NC(=O)[C@H](CN)NC(=O)CSC[C@@H](C(=O)N[C@@H](CCCN)C(=O)NCCOCCOCC(=O)NCCCCCCCCCCC(=O)O)NC(=O)[C@H](C(C)O)NC(=O)[C@H](C(C)C)NC(=O)[C@H](CC2CCCCC2)NC(=O)[C@H](CCN)NC1=O (stereo partly drawn) [Compound 3191] ({CH2CO}-[Dap]Y(Carboxymethyl)DWV[Bip]V[Orn][dL][Dab][Cha]V[Thr(3ξ)]C[Orn][AEEA][Aun]-OH; thioether N-14)	7.94
CC(C)C[C@H]1NC(=O)[C@H](CCCN)NC(=O)[C@H](C(C)C)NC(=O)[C@H](Cc2ccc(-c3ccccc3)cc2)NC(=O)[C@H](C(C)C)NC(=O)[C@H](Cc2c[nH]c3ccccc23)NC(=O)[C@H](CC(=O)O)NC(=O)[C@H](Cc2ccc(OCC(=O)O)cc2)NC(=O)[C@H](CN)NC(=O)CSC[C@@H](C(=O)NCCOCCOCC(=O)N[C@@H](CCCN)C(=O)NCCCCCCCCCCC(=O)O)NC(=O)[C@H](C(C)O)NC(=O)[C@H](C(C)C)NC(=O)[C@H](CC2CCCCC2)NC(=O)[C@H](CC(N)=O)NC1=O (stereo partly drawn) [Compound 3193] ({CH2CO}-[Dap]Y(Carboxymethyl)DWV[Bip]V[Orn][dL]N[Cha]V[Thr(3ξ)]C[AEEA][Orn][Aun]-OH; thioether N-14)	7.84
CC(C)C[C@H]1NC(=O)[C@H](CCCN)NC(=O)[C@H](C(C)C)NC(=O)[C@H](Cc2ccc(-c3ccccc3)cc2)NC(=O)[C@H](C(C)C)NC(=O)[C@H](Cc2c[nH]c3ccccc23)NC(=O)[C@H](CC(=O)O)NC(=O)[C@H](Cc2ccc(OCC(=O)O)cc2)NC(=O)[C@H](CCCCNC(=N)N)NC(=O)CSC[C@@H](C(=O)NCC(=O)NCCOCCOCC(=O)N[C@@H](CCCN)C(=O)NCCCCCCCCCCC(=O)O)NC(=O)[C@H](CN)NC(=O)[C@H](C(C)C)NC(=O)[C@H](CC2CCCCC2)NC(=O)[C@H](CCN)NC1=O [Compound 3196] ({CH2CO}-[hArg]Y(Carboxymethyl)DWV[Bip]V[Orn][dL][Dab][Cha]V[Dap]CG[AEEA][Orn][Aun]-OH; thioether N-14)	7.94
CC(C)C[C@H]1NC(=O)[C@H](CCCN)NC(=O)[C@H](C(C)C)NC(=O)[C@H](Cc2ccc(-c3ccccc3)cc2)NC(=O)[C@H](C(C)C)NC(=O)[C@H](Cc2c[nH]c3ccccc23)NC(=O)[C@H](CC(=O)O)NC(=O)[C@H](Cc2ccc(OCC(=O)O)cc2)NC(=O)[C@H](CCCCNC(=N)N)NC(=O)CSC[C@@H](C(=O)NCC(=O)NCCOCCOCC(=O)N[C@@H](CCCN)C(=O)NCCCCCCCCCCC(=O)O)NC(=O)[C@H](CCN)NC(=O)[C@H](C(C)C)NC(=O)[C@H](CC2CCCCC2)NC(=O)[C@H](CCN)NC1=O [Compound 3197] ({CH2CO}-[hArg]Y(Carboxymethyl)DWV[Bip]V[Orn][dL][Dab][Cha]V[Dab]CG[AEEA][Orn][Aun]-OH; thioether N-14)	8.11
CC(C)C[C@H]1NC(=O)[C@H](CCCN)NC(=O)[C@H](C(C)C)NC(=O)[C@H](Cc2ccc(-c3ccccc3)cc2)NC(=O)[C@H](C(C)C)NC(=O)[C@H](Cc2c[nH]c3ccccc23)NC(=O)[C@H](CC(=O)O)NC(=O)[C@H](Cc2ccc(OCC(=O)O)cc2)NC(=O)[C@H](CCCCNC(=N)N)NC(=O)CSC[C@@H](C(=O)NCC(=O)NCCOCCOCC(=O)N[C@@H](CCCN)C(=O)NCCCCCCCCCCC(=O)O)NC(=O)[C@H](CCCN)NC(=O)[C@H](C(C)C)NC(=O)[C@H](CC2CCCCC2)NC(=O)[C@H](CCN)NC1=O [Compound 3198] ({CH2CO}-[hArg]Y(Carboxymethyl)DWV[Bip]V[Orn][dL][Dab][Cha]V[Orn]CG[AEEA][Orn][Aun]-OH; thioether N-14)	8.40
CC(C)C[C@H]1NC(=O)[C@H](CCCN)NC(=O)[C@H](C(C)C)NC(=O)[C@H](Cc2ccc(-c3ccccc3)cc2)NC(=O)[C@H](C(C)C)NC(=O)[C@H](Cc2c[nH]c3ccccc23)NC(=O)[C@H](CC(=O)O)NC(=O)[C@H](Cc2ccc(OCC(=O)O)cc2)NC(=O)[C@H](CCCCNC(=N)N)NC(=O)CSC[C@@H](C(=O)NCC(=O)NCCOCCOCC(=O)N[C@@H](CCCN)C(=O)NCCCCCCCCCCC(=O)O)NC(=O)[C@H](CCCCN)NC(=O)[C@H](C(C)C)NC(=O)[C@H](CC2CCCCC2)NC(=O)[C@H](CCN)NC1=O [Compound 3199] ({CH2CO}-[hArg]Y(Carboxymethyl)DWV[Bip]V[Orn][dL][Dab][Cha]VKCG[AEEA][Orn][Aun]-OH; thioether N-14)	8.26

Further compounds by rising pIC50, results first:

pIC50	Compound
7.24	CC(C)C[C@@H]1NC(=O)[C@H](Cc2c[nH]c3ccccc23)NC(=O)[C@H](CC(=O)O)NC(=O)[C@H](Cc2ccc(C(=O)O)cc2)NC(=O)[C@H](Cc2ccncc2)NC(=O)CSC[C@@H](C(=O)N[C@@H](CCN)C(=O)NCCOCCOCC(=O)N[C@@H](CCCN)C(=O)NCCCCCCCCCCC(=O)O)NC(=O)[C@H](CO)NC(=O)[C@H](C(C)C)NC(=O)[C@H](CC2CCCCC2)NC(=O)[C@H](CCN)NC(=O)[C@@H](CC(C)C)NC(=O)[C@H](CCCN)NC(=O)[C@H](C(C)C)NC(=O)[C@H](Cc2ccc(-c3ccccc3)cc2)NC1=O [Compound 3195] ({CH2CO}-[4Pal][Phe(4-COOH)]DWL[Bip]V[Orn][dL][Dab][Cha]VSC[Dab][AEEA][Orn][Aun]-OH; thioether N-14)
7.66	CC(C)C[C@@H]1NC(=O)[C@H](Cc2c[nH]c3ccccc23)NC(=O)[C@H](CC(=O)O)NC(=O)[C@H](Cc2ccc(OCC(=O)O)cc2)NC(=O)[C@H](CCCCNC(=N)N)NC(=O)CSC[C@@H](C(=O)NCC(=O)NCCOCCOCC(=O)N[C@@H](CCCN)C(=O)NCCOCCOCC(=O)NCCCCCCCCCCCC(=O)O)NC(=O)[C@H](CO)NC(=O)[C@H](C(C)C)NC(=O)[C@H](CC2CCCCC2)NC(=O)[C@H](CCN)NC(=O)[C@@H](CC(C)C)NC(=O)[C@H](CCCN)NC(=O)[C@H](C(C)C)NC(=O)[C@H](Cc2ccc(-c3ccccc3)cc2)NC1=O [Compound 3189] ({CH2CO}-[hArg]Y(Carboxymethyl)DWL[Bip]V[Orn][dL][Dab][Cha]VSCG[AEEA][Orn][AEEA][12Ado]-OH; thioether N-14)
7.69	CC(C)C[C@H]1NC(=O)[C@H](CCCN)NC(=O)[C@H](C(C)C)NC(=O)[C@H](Cc2ccc(-c3ccccc3)cc2)NC(=O)[C@H](C(C)C)NC(=O)[C@H](Cc2c[nH]c3ccccc23)NC(=O)[C@H](CC(=O)O)NC(=O)[C@H](Cc2ccc(OCC(=O)O)cc2)NC(=O)[C@H](CCCCNC(=N)N)NC(=O)CSC[C@@H](C(=O)NCC(=O)NCCOCCOCC(=O)N[C@@H](CCCN)C(=O)NCCOCCOCC(=O)NCCCCCCCCCCCC(=O)O)NC(=O)[C@H](CO)NC(=O)[C@H](C(C)C)NC(=O)[C@H](CC2CCCCC2)NC(=O)[C@H](CCN)NC1=O [Compound 3190] ({CH2CO}-[hArg]Y(Carboxymethyl)DWV[Bip]V[Orn][dL][Dab][Cha]VSCG[AEEA][Orn][AEEA][12Ado]-OH; thioether N-14)
7.74	CC(C)C[C@H]1NC(=O)[C@H](CCCN)NC(=O)[C@H](C(C)C)NC(=O)[C@H](Cc2ccc(-c3ccccc3)cc2)NC(=O)[C@H](C(C)C)NC(=O)[C@H](Cc2c[nH]c3ccccc23)NC(=O)[C@H](CC(=O)O)NC(=O)[C@H](Cc2ccc(OCC(=O)O)cc2)NC(=O)[C@H](CN)NC(=O)CSC[C@@H](C(=O)N[C@@H](CCCN)C(=O)NCCOCCOCC(=O)NCCCCCCCCCCC(=O)O)NC(=O)[C@H](CO)NC(=O)[C@H](C(C)C)NC(=O)[C@H](CC2CCCCC2)NC(=O)[C@H](C(C)O)NC1=O (stereo partly drawn) [Compound 3192] ({CH2CO}-[Dap]Y(Carboxymethyl)DWV[Bip]V[Orn][dL][Thr(3ξ)][Cha]VSC[Orn][AEEA][Aun]-OH; thioether N-14)
